{
  "source": "patent US7414058B2",
  "about": "“Adenosine A2a receptor antagonists for the treatment of extra-pyramidal syndrome and other movement disorders” (Schering Corporation, priority 2002, dated 2008)",
  "system": "haloperidol-induced EPS in Cebus apella monkeys",
  "test": "Haloperidol-induced EPS in sensitized Cebus apella monkeys",
  "format": "in vivo",
  "conditions": "for monkeys in which onset of EPS was prevented: group of seven monkeys",
  "method": "A more complete understanding of the invention may be obtained by reading the following description in conjunction with the appended figures relating to haloperidol-induced EPS in Cebus apella monkeys.\nCompound A was administered orally (p.o.) at doses of 0.3-30 mg/kg, in conjunction with haloperidol. The studies were conducted using a within-subjects design such that each monkey received all 6 treatments (vehicle and 5 doses of Compound A) in a crossover, balanced design.",
  "key": {"[1]": {"conditions": "1 mg/kg p.o., haloperidol 0.3 mg/kg p.o."}, "[2]": {"conditions": "10 and 30 mg/kg p.o., haloperidol 0.3 mg/kg p.o."}},
  "data": [
    {"smiles": "Nc1nc2c(cnn2CCN2CCN(c3ccc(F)cc3F)CC2)c2nc(-c3ccco3)nn12", "note": "[Compound A]", "values": [
      {"measurement": "monkeys in which onset of EPS was prevented", "setting": "[1]", "result": "one"},
      {"measurement": "delay of the onset of EPS", "setting": "[1]", "result": 1, "unit": "h"},
      {"measurement": "monkeys in which onset of EPS was prevented", "setting": "3 mg/kg p.o., haloperidol 0.3 mg/kg p.o.", "result": "two"},
      {"measurement": "delay of the onset of EPS", "setting": "3 mg/kg p.o., in the remaining monkeys, haloperidol 0.3 mg/kg p.o.", "result": "~2", "unit": "h"},
      {"measurement": "monkeys in which onset of EPS was prevented", "setting": "[2]", "result": "three"},
      {"measurement": "delay of the onset of EPS (average)", "setting": "[2]", "result": "2.3 to 2.9", "unit": "h"},
      {"measurement": "maximum EPS score", "setting": "Compound A 0.3-30 mg/kg p.o. with haloperidol 0.3 mg/kg p.o., FIG. 1A, seven monkeys, crossover", "result": "dose-dependent reduction"},
      {"measurement": "delay in the onset of EPS (dose dependence)", "setting": "Compound A 0.3-30 mg/kg p.o. with haloperidol 0.3 mg/kg p.o., FIG. 1B, vs vehicle", "result": "dose-dependent delay"}
    ]}
  ]
}
